Source: patent publication US11708381B2, “Inhibitors of androgen receptor signaling” (XAVIER UNIVERSITY OF LOUISIANA, priority 2016, dated 2023)
Like-named read-outs stand apart in the source and are kept apart here.

How the values were obtained:
Format in all cases: cell-based
[1] = tested on: LNCaP95 cells; test: Antiproliferative activity, resazurin assay, LNCaP95 cells; conditions: enzalutamide-resistant LNCaP95 cells, 72 h, cell proliferation, read-out: IC50 (μM) LCaP95
Description: (§1) LNCaP95 and 22RV1 are prostate cancer cell lines that express high level of AR-V7 and other AR-Vs, and are enzalutamide-resistant. LNCaP95 cells were maintained in RPMI1640 medium with charcoal-stripped serum (CSS). 22Rv1 cells were maintained in RPMI1640 medium with 10% FBS. Cells were seeded in 96-well plates (5×10^3 cells/well) containing 50 μL growth medium for 24 hrs. After medium removal, 100 μL fresh medium containing individual compound at different concentrations was added to each well and incubated at 37° C. for 72 h. Then 20 μL of resazurin was added for 2 h before recording fluorescence at 560 nm (excitation) and 590 nm (emission) using a Victor microtiter plate fluorometer (Perkin-Elmer, USA). The IC50 was defined as the compound concentration required for inhibiting cell proliferation by 50%, in comparison with cells treated with the maximum amount of DMSO (0.25%) and considered as 100% viability.

[2] = tested on: 22RV1 cells; test: Antiproliferative activity, resazurin assay, 22RV1 cells; conditions: for Inhibitory rate at 10^−6 M in 22RV1 cells: 72 h incubation; for IC50: enzalutamide-resistant 22RV1 cells, 72 h, cell proliferation
Description: as §1

[3] = tested on: AR; test: Downregulation of AR in 22RV1 cells; conditions: 22RV1, enzalutamide-resistant prostate cancer cell line (FIG. 11)
[4] = tested on: AR; test: Downregulation of AR in LNCaP95 cells; conditions: LNCaP95, enzalutamide-resistant prostate cancer cell line (FIG. 10)
[5] = tested on: AR-V7; test: Downregulation of AR-V7 in 22RV1 cells; conditions: 22RV1, enzalutamide-resistant prostate cancer cell line (FIG. 11)
[6] = tested on: AR-V7; test: Downregulation of AR-V7 in LNCaP95 cells; conditions: LNCaP95, enzalutamide-resistant prostate cancer cell line (FIG. 10)

Row | Compound | IC50 ([1]; LNCaP-95) [µM] | IC50 ([2]; Homo sapiens) [µM] | Inhibitory rate at 10^−6 M in 22RV1 cells [2] [%] | also measured
1 | N#Cc1ccc(NC(=O)c2cc(F)ccc2O)c(F)c1 | 0.397 | 0.414 | 55.3 | 
2 | O=C(Nc1ccc([N+](=O)[O-])cc1F)c1cc(F)ccc1O | 0.206 | 0.244 | 43.9 | 
3 | Niclosamide [reference compound] |  |  | 51.3 | downregulation of AR [3]: dose-dependent downregulation; IC50 [1]: 0.372 µM; IC50 [2]: 0.284 µM
4 | O=C(Nc1ccc(C(F)(F)F)c(C(F)(F)F)c1)c1cc(F)ccc1O [ARi 4] |  |  |  | downregulation of AR [4]: dose-dependent downregulation; downregulation of AR [3]: dose-dependent downregulation; downregulation of AR-V7 [5]: dose-dependent downregulation; downregulation of AR-V7 [6]: dose-dependent downregulation

Continued by falling IC50 ([1]; LNCaP-95), values first:

Row | IC50 ([1]; LNCaP-95) [µM] | IC50 ([2]; Homo sapiens) [µM] | Compound | Inhibitory rate at 10^−6 M in 22RV1 cells [2] [%] | also measured
5 | 0.199 | 0.382 | O=C(Nc1ccc(C(F)(F)F)cc1F)c1cc(F)c(F)cc1O | 52.7 | 
6 | 0.161 | 0.195 | N#Cc1cc(NC(=O)c2cc(F)ccc2O)ccc1C(F)(F)F | 21.8 | 
7 | 0.152 | 0.121 | O=C(Nc1ccc(C(F)(F)F)cc1F)c1cc(F)ccc1O | 12.4 | 
8 | 0.148 | 0.135 | O=C(Nc1ccc(C(F)(F)F)cc1Cl)c1cc(F)ccc1O | 14.5 | 
9 | 0.13 |  | O=C(Nc1ccc(C(F)(F)F)c(C(F)(F)F)c1)c1cc(F)ccc1O [drawing 30] | 15.7 | 
